Read-outs that look alike come from different tables or passages of the source.
Assays:
Botrytis cinerea [1] = test: Eggplant grey mold; format: in vivo; design: scale not given here; settings: inoculated 24 h later, rated after 3-4 days; for Disease Control Rating at 500 ppm: eggplant sprayed with 500 ppm; for Disease Control Rating at 20 ppm: eggplant sprayed with 20 ppm; for Disease Control Rating at 100 ppm: eggplant sprayed with 100 ppm
Experimental: Eggplant seed are planted in 2.25" square pots, six per pot, and maintained in growth chambers set at 23° C., 80% humidity, and 12 h photoperiod. When the plants are at the cotyledon stage (14-18 days afterplanting), the plants are sprayed with 1.5 mL/pot of 500, 100 or 20 ppm 2:3 acetone:water (with 0.5% Tween® 20) formulations of the test compounds.
Twenty-four hours later the plants are inoculated with Botrytis cinerea, approximately 0.5 mL/pot of a 4×10^6 spore/mL suspension. The plantes are incubated at 23° C. and 100% humidity for 3-4 days, at which time disease control ratings are made based on presence and severity of Botrytis lesions.

Rhizoctonia solani = test: Rice sheath blight; format: in vivo; design: scale not given here; settings: inoculated two days later, rated after 7 days, average of five plants; for Disease Control Rating at 0.02 mg/mL: foliage and soil sprayed with 0.02 mg/mL; for Disease Control Rating at 0.1 mg/mL: foliage and soil sprayed with 0.1 mg/mL; for Disease Control Rating at 0.5 mg/mL: foliage and soil sprayed with 0.5 mg/mL
Experimental: Rice plants, 11 to 15 days old, are grown in 7.65 cm^2 pots. Each plant in the treatment groups is treated by spraying both the foliage and the soil surface, each with 2 mL of a water/acetone/Tween®20 formulation containing 0.5, 0.1, or 0.02 mg/mL of Compound A. The pots are placed in flood trays which are filled with water to just below the soil line. Two days later, approximately two grams of Rhizoctonia solani inoculum, cultured on rice grain for four to eight weeks, is applied to the base of the rice plants in each pot. After 7 days in a 25° C. high humidity growth chamber, each plant is evaluated for the level of disease contro as compared to untreated controls by the following scale and the average of five plants per treatment level is calculated.

succinate dehydrogenase = target: T1, succinate dehydrogenase (Botrytis cinerea, UniProt A0A384J5E4+A0A384J8V8+A0A384JHJ5); test: Enzyme inhibition: succinate dehydrogenase activity in Botrytis cinerea mitochondria (DCPIP reduction); format: biochemical
T1 construct: succinate-DCPIP reductase assay with KCN
T1 sequence (A0A384J5E4 1-300): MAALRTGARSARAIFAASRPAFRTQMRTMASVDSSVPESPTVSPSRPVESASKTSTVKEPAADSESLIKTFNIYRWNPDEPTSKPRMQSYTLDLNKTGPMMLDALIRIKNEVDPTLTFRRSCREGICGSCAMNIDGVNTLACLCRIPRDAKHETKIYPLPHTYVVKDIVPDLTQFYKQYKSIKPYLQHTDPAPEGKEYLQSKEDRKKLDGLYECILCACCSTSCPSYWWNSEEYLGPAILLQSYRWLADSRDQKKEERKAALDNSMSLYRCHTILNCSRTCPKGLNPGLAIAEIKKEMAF
T1 sequence (A0A384J8V8 1-189): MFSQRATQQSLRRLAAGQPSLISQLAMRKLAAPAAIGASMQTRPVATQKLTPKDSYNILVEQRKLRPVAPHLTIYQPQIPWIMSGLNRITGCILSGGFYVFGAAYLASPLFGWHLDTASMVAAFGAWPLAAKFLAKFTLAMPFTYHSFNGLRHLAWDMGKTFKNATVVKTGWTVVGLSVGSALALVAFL
T1 sequence (A0A384JHJ5 1-192): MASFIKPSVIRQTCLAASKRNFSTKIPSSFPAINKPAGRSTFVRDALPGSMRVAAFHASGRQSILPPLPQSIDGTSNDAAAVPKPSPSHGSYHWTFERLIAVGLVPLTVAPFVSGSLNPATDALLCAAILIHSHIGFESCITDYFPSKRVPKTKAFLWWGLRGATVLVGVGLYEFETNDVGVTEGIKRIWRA
T1 sequence (A0A384K456 1-647 partner): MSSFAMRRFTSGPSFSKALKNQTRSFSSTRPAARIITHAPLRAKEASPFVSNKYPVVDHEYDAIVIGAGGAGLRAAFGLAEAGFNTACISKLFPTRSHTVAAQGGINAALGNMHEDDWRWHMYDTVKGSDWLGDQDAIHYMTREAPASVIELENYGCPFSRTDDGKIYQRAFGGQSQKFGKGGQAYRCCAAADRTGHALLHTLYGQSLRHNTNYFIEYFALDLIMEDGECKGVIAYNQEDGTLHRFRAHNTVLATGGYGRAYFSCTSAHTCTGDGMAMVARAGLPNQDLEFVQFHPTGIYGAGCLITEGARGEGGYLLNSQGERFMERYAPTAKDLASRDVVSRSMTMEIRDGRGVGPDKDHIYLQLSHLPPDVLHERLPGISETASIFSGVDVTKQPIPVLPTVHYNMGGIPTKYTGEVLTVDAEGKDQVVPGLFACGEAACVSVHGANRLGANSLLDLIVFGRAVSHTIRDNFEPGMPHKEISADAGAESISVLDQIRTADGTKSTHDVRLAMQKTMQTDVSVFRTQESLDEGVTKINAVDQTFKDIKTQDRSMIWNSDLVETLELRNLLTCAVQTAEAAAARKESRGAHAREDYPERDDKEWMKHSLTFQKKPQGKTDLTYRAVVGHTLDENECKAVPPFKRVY
Experimental: Mitochondria were isolated by a method adapted from G.A. White [Biochem. Biophys. Res. Commun. 44: 1212, 1971]. Twenty to thirty grams of Botrytis cinerea isolate Nick were resuspended in 250 mL 0.25M sucrose, 5mM Na4 EDTA, pH 7.0 (+) 0.15% (w/v) bovine serum albumin (BSA) and placed in a Bead Beater chamber (Biospec Products, Bartlesville, Ok.). Zirconium oxide beads (0.5mm) were added to finish filling the chamber. Four 30 second beats separated by 2 minute temperature equilibration periods in the cold were used to break the mycelia. A crude mitochondrial preparation was harvested from the homogenate by differential centrifugation at 4° C. and resuspended in BSA-free sucrose/EDTA media and used for SDH assays.
The succinate dehydrogenase activity was measured at 600 nm in 50 mM potassium phosphate, pH 7.2, 1 mM KCN, 45 μM 2,6-dichlorophenolindophenol (DCPIP) and 17 mM disodium succinate (final volume, 1 mL) with a Perkin-Elmer Lambda 7 ultraviolet-visible spectrophotometer. The test compounds were added as acetone solutions (final concentration of acetone, 1% (v/v)). The mitochondrial preparatons were used to initiate the reaction. All rates were corrected for endogenous activities minus succinate. Semilog plots of percentage inhibition versus test compound concentration were used to determine inhibition expressed as I50 (μM) which is the concentration required to inhibit the rate of DCPIP reduction by 50%. The commercial fungicide carboxin was used as standard throughout.

Botrytis cinerea [2] = test: Vine grey mold (grape berries); format: in vivo; settings: average of six berries, 7-10 days; for pest or weed control at 50 ppm: grape berries treated with 50 ppm, read-out: % DISEASE CONTROL 50 ppm; for pest or weed control at 200 ppm: grape berries treated with 200 ppm, read-out: % DISEASE CONTROL 200 ppm
Experimental: Grape berries, which have been washed and surfaced sterilized in 70% ethanol for one minute, are, except for the negative controls, treated with 0.2 mL of a 2:3 acetone/water formulation (containing 0.05% Tween® 20) of 200 or 50 ppm of the test compounds and placed one per well in 12-well plates. Six berries per treatment level are used. Twenty-four hours later each berry is inoculated with Botrytis cinerea conidia, 0.2 mL of 10^6 spores/mL suspension. The plates are incubated at 20° C. with a 12 hours photoperiod for 7-10 days and the percent surface area infected with the disease is determined for each replicate using the values of 0, 1, 2, 5, 7, 10, 15, 20, 25, 30, 35, 40, 45, 50, 55, 60, 65, 70, 75, 80, 85, 90, 95, and 100%. Treatment means are calculated and percent disease control is determined by the formula [(control mean - treatment mean)/control means]×100.
Some of the compounds have been tested more than once and the results shown are the average of the number of tests reported.

[3] = concentration required to inhibit the rate of DCPIP reduction by 50%; Botrytis cinerea isolate Nick mitochondria; read-out: I50 (μM conc.)

Row | Structure (SMILES) | Disease Control Rating at 500 ppm (Botrytis cinerea [1]) | Disease Control Rating at 0.02 mg/mL (Rhizoctonia solani) | Disease Control Rating at 0.1 mg/mL (Rhizoctonia solani) | Disease Control Rating at 0.5 mg/mL (Rhizoctonia solani) | IC50 (succinate dehydrogenase; [3]) [µM] | pest or weed control at 50 ppm (Botrytis cinerea [2]) [%] | pest or weed control at 200 ppm (Botrytis cinerea [2]) [%] | Disease Control Rating at 20 ppm (Botrytis cinerea [1]) | Disease Control Rating at 100 ppm (Botrytis cinerea [1]) | IC50 (succinate dehydrogenase; read-out: I50 (μM conc.); concentration required to inhibit the rate of DCPIP reduction by 50%; Botrytis cinerea isolate Nick mitochondria) [µM]
1 | Cn1cc(C(=O)Nc2ccccc2OCC2CCCC2)c(C(F)(F)F)n1 [Example 47, 1H-pyrazole-4-carboxamide, N-[2-(cyclopentylmethoxy)phenyl]-1-methyl-3-(trifluoromethyl)-] | 0 | 1 | 3 | 3 | 0.16 | 3 | 0 | – | – | –
2 | COc1ccc(C2CCCCCCC2)c(NC(=O)c2cn(C)nc2C(F)(F)F)c1 [Example 38, 1H-pyrazole-4-carboxamide, N-(2-cyclooctyl-5-methoxyphenyl)-1-methyl-3-(trifluoromethyl)-] | 2 | 0 | 0 | 1 | 0.014 | 0 | 14 | 0 | 2 | –
3 | CC(C)C1CCCC=C1c1ccccc1NC(=O)c1cn(C)nc1C(F)(F)F (stereo not drawn) [Example 131, 1H-pyrazole-4-carboxamide, 1-methyl-N-[2-[6-(1-methylethyl)-1-cyclohexen-1-yl]phenyl]-3-(trifluoromethyl)-] | 0 | – | – | 2 | 0.19 | 7 | 0 | 0 | 0 | –
4 | Cn1cc(C(=O)Nc2ccccc2C2CCC(C(C)(C)C)CC2)c(C(F)F)n1 (stereo not drawn) [Example 134] | 2 | 3 | 3 | 3 | 0.0047 | 66 | 61 | 1 | 1 | –
5 | Cn1cc(C(=O)Nc2ccccc2OC2(C)CCCC2)c(C(F)F)n1 [Example 35, 1H-pyrazole-4-carboxamide, 3-(difluoromethyl)-1-methyl-N-[2-(1-methylcyclopentyloxy)phenyl]-] | 3 | 2 | 3 | 3 | 0.012 | 42 | 46 | 2 | 3 | –
6 | Cc1ccc(NC(=O)c2cn(C)nc2C(F)F)c(C2CCCCC2)c1 [Example 28, 1H-pyrazole-4-carboxamide, N-(2-cyclohexyl-4-methylphenyl)-3-(difluoromethyl)-1-methyl-] | 2 | – | – | 0 | 0.01 | 37 | 77 | 0 | 1 | –
7 | Cn1cc(C(=O)Nc2ccccc2C2CCCCCC2)c(C(F)(F)Cl)n1 [Example 92, 1H-pyrazole-4-carboxamide, 3-(chlorodifluoromethyl)-N-(2-cycloheptylphenyl)-1-methyl-] | 0 | 0 | 1 | 2 | 0.062 | 36 | 30 | – | – | –
8 | Cn1cc(C(=O)Nc2ccccc2C=C2CCCCCC2)c(C(F)(F)F)n1 [Example 143, 1H-pyrazole-4-carboxamide, N-[2-(cycloheptylidenemethyl)phenyl]-1-methyl-3-(trifluoromethyl)-] | 0 | – | – | 3 | 0.025 | 33 | 36 | 0 | 0 | –
9 | Cn1nc(C(F)(F)F)c(C(=O)Nc2ccccc2C2CCCCC2)c1F [Example 84, 1H-pyrazole-4-carboxamide, N-(2-cyclohexylphenyl)-5-fluoro-1-methyl-3-(trifluoromethyl)-] | 2 | – | – | 0 | 0.013 | 93 | 96 | 0 | 1 | –
10 | Cc1ccc(C2CCCCC2)c(NC(=O)c2cn(C)nc2C(F)(F)F)c1 [Example 18, 1H-pyrazole-4-carboxamide, N-(2-cyclohexyl-5-methylphenyl)-1-methyl-3-(trifluoromethyl)-] | 0 | – | – | 0 | 0.031 | 0 | 0 | – | – | –
11 | Cn1cc(C(=O)Nc2ccccc2C2CCCCC2)c(OC(F)F)n1 [Example 59] | 0 | – | – | 0 | 1 | 0 | 0 | – | – | –
12 | Cn1cc(C(=O)Nc2ccccc2SC2CCCCC2)c(C(F)F)n1 [Example 44, 1H-pyrazole-4-carboxamide, N-[2-(cyclohexylthio)phenyl]-3-(difluoromethyl)-1-methyl-] | 1 | – | – | 0 | 0.052 | 0 | 37 | – | – | –
13 | Cn1cc(C(=O)Nc2ccccc2C2=CCCCCCC2)c(C(F)F)n1 [Example 119] | 2 | – | – | 2 | – | 73 | 84 | 0 | 1 | 0.0035
14 | Cc1c(C(=O)Nc2ccccc2[C@@H]2C[C@H]3CC[C@@H]2C3)c(C(F)(F)F)nn1C (relative stereo) [Example 100, 1H-pyrazole-4-carboxamide, N-(2-bicyclo[2.2.1]hept-2-ylphenyl)-1,5-dimethyl-3-(trifluoromethyl)-, exo-] | 0 | 0 | 1 | 2 | 0.19 | 0 | 22 | – | – | –
15 | CC1=C(c2ccccc2NC(=O)c2cn(C)nc2C(F)F)C(C)CCC1 (stereo not drawn) [Example 124, 1H-pyrazole-4-carboxamide, 3-(difluoromethyl)-N-[2-(2,6-dimethyl-1-cyclohexen-1-yl)phenyl]-1-methyl-] | 2 | – | – | 2 | 0.013 | 48 | 96 | 0 | 1 | –

From patent publication US5223526A, “Pyrazole carboxanilide fungicides and use” (Monsanto Company, priority 1992, dated 1993)
